Assay results reported in the NIST ThermoML archive (doi:10.1016/j.fluid.2017.01.019).
Numbers after ± are expanded uncertainties.

Assay: xn = mol fraction of the nth substance listed
Details: 100 kPa, Liquid; for mass density: Vibrating tube method; for viscosity: Falling or rolling sphere viscometry; for speed of sound: Frequency=3 MHz, Sing-around technique in a fixed-path interferometer

`CCOS(=O)(=O)[O-].CCn1cc[n+](C)c1` [1-ethyl-3-methylimidazolium ethyl sulfate] + CCCCO showed a mass density (289.15 K, x1 = 0.1071) of 894.433 ± 1.6 kg/m3, a mass density (289.15 K, x1 = 0.1982) of 955.118 ± 1.4 kg/m3 and a mass density (289.15 K, x1 = 0.3069) of 1015.6 ± 1.5 kg/m3. The mass density (289.15 K, x1 = 0.3985) was 1058.77 ± 1.8 kg/m3, the mass density (289.15 K, x1 = 0.5048) was 1101.82 ± 2.5 kg/m3 and the mass density (289.15 K, x1 = 0.603) was 1136.02 ± 3.3 kg/m3. The mass density (289.15 K, x1 = 0.7158) was 1169.99 ± 4.4 kg/m3, the mass density (289.15 K, x1 = 0.7951) was 1191.1 ± 5.4 kg/m3 and the mass density (289.15 K, x1 = 0.9185) was 1219.88 ± 7.1 kg/m3. It also gave a mass density (289.15 K, x1 = 1) of 1236.33 ± 8.3 kg/m3, a viscosity (298.15 K, x1 = 0.1071) of 4.24 ± 0.16 mPa·s and a viscosity (298.15 K, x1 = 0.1982) of 7.8 ± 0.19 mPa·s. It also gave a viscosity (298.15 K, x1 = 0.3069) of 10.83 ± 0.22 mPa·s, a viscosity (298.15 K, x1 = 0.3985) of 14.09 ± 0.27 mPa·s and a viscosity (298.15 K, x1 = 0.5048) of 19.44 ± 0.38 mPa·s. The viscosity (298.15 K, x1 = 0.603) was 26.62 ± 0.55 mPa·s, the viscosity (298.15 K, x1 = 0.7158) was 38.4 ± 0.84 mPa·s and the viscosity (298.15 K, x1 = 0.7951) was 49.51 ± 1.2 mPa·s. It also gave a viscosity (298.15 K, x1 = 0.9185) of 72.34 ± 2 mPa·s, a viscosity (298.15 K, x1 = 1) of 96.21 ± 3.2 mPa·s and a speed of sound (298.15 K, x1 = 0.1071) of 1289.1 ± 1.9 m/s. For the same compound, the speed of sound (298.15 K, x1 = 0.1982) was 1334.4 ± 2.2 m/s, the speed of sound (298.15 K, x1 = 0.3069) was 1385.6 ± 2.6 m/s and the speed of sound (298.15 K, x1 = 0.3985) was 1430.2 ± 2.9 m/s. It also gave a speed of sound (298.15 K, x1 = 0.5048) of 1480.4 ± 3.3 m/s, a speed of sound (298.15 K, x1 = 0.603) of 1523.6 ± 3.6 m/s and a speed of sound (298.15 K, x1 = 0.7158) of 1571.7 ± 4 m/s. For the same compound, the speed of sound (298.15 K, x1 = 0.7951) was 1603.7 ± 4.3 m/s, the speed of sound (298.15 K, x1 = 0.9185) was 1649.7 ± 4.8 m/s and the speed of sound (298.15 K, x1 = 1) was 1682.3 ± 5.1 m/s. The viscosity (303.15 K, x1 = 0.1071) was 3.75 ± 0.16 mPa·s, the viscosity (303.15 K, x1 = 0.1982) was 6.51 ± 0.18 mPa·s and the viscosity (303.15 K, x1 = 0.3069) was 9.15 ± 0.2 mPa·s. For the same compound, the viscosity (303.15 K, x1 = 0.3985) was 11.98 ± 0.24 mPa·s, the viscosity (303.15 K, x1 = 0.5048) was 16.51 ± 0.33 mPa·s and the viscosity (303.15 K, x1 = 0.603) was 22.37 ± 0.46 mPa·s. The viscosity (303.15 K, x1 = 0.7158) was 31.74 ± 0.7 mPa·s, the viscosity (303.15 K, x1 = 0.7951) was 40.39 ± 0.94 mPa·s and the viscosity (303.15 K, x1 = 0.9185) was 57.89 ± 1.4 mPa·s. It also gave a viscosity (303.15 K, x1 = 1) of 75.89 ± 2.2 mPa·s, a speed of sound (303.15 K, x1 = 0.1071) of 1273.7 ± 1.9 m/s and a speed of sound (303.15 K, x1 = 0.1982) of 1319.9 ± 2.2 m/s. It also gave a speed of sound (303.15 K, x1 = 0.3069) of 1372 ± 2.6 m/s, a speed of sound (303.15 K, x1 = 0.3985) of 1417 ± 2.9 m/s and a speed of sound (303.15 K, x1 = 0.5048) of 1467.3 ± 3.3 m/s. The speed of sound (303.15 K, x1 = 0.603) was 1510.8 ± 3.6 m/s, the speed of sound (303.15 K, x1 = 0.7158) was 1559.1 ± 4 m/s and the speed of sound (303.15 K, x1 = 0.7951) was 1591.2 ± 4.3 m/s. For the same compound, the speed of sound (303.15 K, x1 = 0.9185) was 1637.3 ± 4.8 m/s, the speed of sound (303.15 K, x1 = 1) was 1670 ± 5.1 m/s and the mass density (303.15 K, x1 = 0.1071) was 890.751 ± 1.6 kg/m3. It also gave a mass density (303.15 K, x1 = 0.1982) of 951.498 ± 1.4 kg/m3, a mass density (303.15 K, x1 = 0.3069) of 1012.01 ± 1.5 kg/m3 and a mass density (303.15 K, x1 = 0.3985) of 1055.33 ± 1.8 kg/m3. The mass density (303.15 K, x1 = 0.5048) was 1098.4 ± 2.5 kg/m3, the mass density (303.15 K, x1 = 0.603) was 1132.65 ± 3.2 kg/m3 and the mass density (303.15 K, x1 = 0.7158) was 1166.67 ± 4.4 kg/m3. It also gave a mass density (303.15 K, x1 = 0.7951) of 1187.78 ± 5.3 kg/m3, a mass density (303.15 K, x1 = 0.9185) of 1216.56 ± 7 kg/m3 and a mass density (303.15 K, x1 = 1) of 1232.93 ± 8.3 kg/m3. It also gave a viscosity (308.15 K, x1 = 0.1071) of 3.34 ± 0.16 mPa·s, a viscosity (308.15 K, x1 = 0.1982) of 5.54 ± 0.17 mPa·s and a viscosity (308.15 K, x1 = 0.3069) of 7.92 ± 0.19 mPa·s. The viscosity (308.15 K, x1 = 0.3985) was 10.46 ± 0.23 mPa·s, the viscosity (308.15 K, x1 = 0.5048) was 14.4 ± 0.3 mPa·s and the viscosity (308.15 K, x1 = 0.603) was 19.31 ± 0.4 mPa·s. For the same compound, the viscosity (308.15 K, x1 = 0.7158) was 26.88 ± 0.59 mPa·s, the viscosity (308.15 K, x1 = 0.7951) was 33.7 ± 0.79 mPa·s and the viscosity (308.15 K, x1 = 0.9185) was 47.2 ± 1.2 mPa·s. It also gave a viscosity (308.15 K, x1 = 1) of 60.73 ± 1.6 mPa·s, a speed of sound (308.15 K, x1 = 0.1071) of 1258.4 ± 1.9 m/s and a speed of sound (308.15 K, x1 = 0.1982) of 1305.4 ± 2.2 m/s. The speed of sound (308.15 K, x1 = 0.3069) was 1358.2 ± 2.6 m/s, the speed of sound (308.15 K, x1 = 0.3985) was 1403.8 ± 2.9 m/s and the speed of sound (308.15 K, x1 = 0.5048) was 1454.7 ± 3.3 m/s. It also gave a speed of sound (308.15 K, x1 = 0.603) of 1498.4 ± 3.6 m/s, a speed of sound (308.15 K, x1 = 0.7158) of 1546.8 ± 4 m/s and a speed of sound (308.15 K, x1 = 0.7951) of 1578.9 ± 4.3 m/s. The speed of sound (308.15 K, x1 = 0.9185) was 1625.2 ± 4.8 m/s, the speed of sound (308.15 K, x1 = 1) was 1657.9 ± 5.1 m/s and the mass density (308.15 K, x1 = 0.1071) was 887.005 ± 1.6 kg/m3. The mass density (308.15 K, x1 = 0.1982) was 947.88 ± 1.4 kg/m3, the mass density (308.15 K, x1 = 0.3069) was 1008.14 ± 1.5 kg/m3 and the mass density (308.15 K, x1 = 0.3985) was 1051.76 ± 1.8 kg/m3. The mass density (308.15 K, x1 = 0.5048) was 1094.94 ± 2.4 kg/m3, the mass density (308.15 K, x1 = 0.603) was 1129.23 ± 3.2 kg/m3 and the mass density (308.15 K, x1 = 0.7158) was 1163.39 ± 4.4 kg/m3. The mass density (308.15 K, x1 = 0.7951) was 1184.46 ± 5.3 kg/m3, the mass density (308.15 K, x1 = 0.9185) was 1213.19 ± 7 kg/m3 and the mass density (308.15 K, x1 = 1) was 1229.57 ± 8.2 kg/m3.
